Assays:
Type in all cases: in vivo
[1] = test system: corn crop; assay: % phytotoxicity in corn crop after spraying tank mix; details: for Phytotoxicity (%) in corn crop: flucarbazone 30 g ai/ha, safener cyprosulfamid 66 / isoxadifen 38 / mefenpyr 30 g ai/ha
Description: Treatment: The present invention has employed a tank mix combination of Flucarbazone and Cyprosulfamid as the safener to evaluate its percentage phytotoxicity and its efficacy in the control of weeds.
The tank mix combination of Flucarbazone and Cyprosulfamid as the safener was formulated and the combination was sprayed onto corn crop and the results on the phytotoxicity in corn were determined. These observations relating to % phytotoxicity were made during a time interval of over a month. The duration at which the % phytotoxicity were determined at time intervals as follows: 3 DAA (3 days after application), 5 DAA (5 days after application), 7 DAA (7 days after application), 14 DAA (14 days after application), 21 DAA (21 days after application); 28 DAA (28 days after application); 35 DAA (35 days after application); 42DAA (42 days after application).
• (i) Treatment: The present invention has employed a tank mix of Flucarbazone and Isoxadifen as the safener to evaluate its percentage phytotoxicity in corn crop. • (ii) % Phytotoxicity: This % phytotoxicity was observed by the present inventors to be as high as 48% at 14 DAA in crops treated with Flucarbazone and Isoxadifen.
B) Flucarbazone with Mefenpyr as the Safener • (i) Treatment: The present invention has employed a tank mix combination of Flucarbazone and […] as the safener to evaluate its percentage phytotoxicity in corn crop.

[2] = test system: corn crop; assay: % phytotoxicity on corn varieties, greenhouse; details: flucarbazone 45 g ai/ha alone
Description: (§1) The combination of flucarbazone with safeners selected from cyprosulfamid and isoxadifen were evaluated in terms of the increase or decrease in height of the treated corn crop (cm) and % phytotoxicity. The experimental evaluations were conducted under greenhouse conditions with 4 repetitions, using a spray volume of […]. The different corn varieties tested were SYN8A98 TLTG and XB 8010.
The observations for determining corn height were made at 7 DAA (days after application), 14 DAA and 21 DAA, of the herbicide. The treatment employed and the corresponding observations are detailed in the table 9 (i) & (ii) below: […]

[3] = test system: corn crop; assay: Height of corn plants after treatment, greenhouse; details: for Crop height (cm) at 14 DAA: safener 90 g ai/ha
Description: as §1
The observations for determining corn height were made at 14 DAA (days after application) of the herbicide. The treatment employed and the corresponding observations are detailed in the table 8 (i) & (ii) below: […]

[4] = test system: redroot pigweed; assay: % efficacy of weed control against redroot pigweed in corn crop; details: for % Efficacy for control of weeds: redroot pigweed in corn crop, flucarbazone 30 g ai/ha, cyprosulfamid 66 g ai/ha
Description: The tank mix combination of Flucarbazone and Cyprosulfamid as the safener was formulated and the combination was sprayed onto corn crop and the results on the efficacy in weed control were determined.

COc1nn(C(=O)NS(=O)(=O)c2ccccc2OC(F)(F)F)c(=O)n1C [flucarbazone, Flucarbazone]
Phytotoxicity (%) in corn crop ([1]; 3DAA & 5DAA, sub-column 1 of 3 (unlabelled)): 0% | Phytotoxicity (%) in corn crop ([1]; 3DAA & 5DAA, sub-column 3 of 3 (unlabelled)): 0% | Phytotoxicity (%) in corn crop ([1]; 3DAA & 5DAA): 0% | Phytotoxicity (%) in corn crop ([1]; 7DAA, sub-column 1 of 3 (unlabelled)): 28.8% | Phytotoxicity (%) in corn crop ([1]; 7DAA, sub-column 3 of 3 (unlabelled)): 28.8% | Phytotoxicity (%) in corn crop ([1]; 7DAA): 28.8% | Phytotoxicity (%) in corn crop ([1]; 14 DAA, sub-column 1 of 3 (unlabelled)): 51.3% | Phytotoxicity (%) in corn crop ([1]; 14 DAA, sub-column 3 of 3 (unlabelled)): 50% | Phytotoxicity (%) in corn crop ([1]; 14 DAA): 53.8% | Phytotoxicity (%) in corn crop ([1]; 21DAA, sub-column 1 of 3 (unlabelled)): 50% | Phytotoxicity (%) in corn crop ([1]; 21DAA, sub-column 3 of 3 (unlabelled)): 46.3% | Phytotoxicity (%) in corn crop ([1]; 21DAA): 51.3% | Phytotoxicity (%) in corn crop ([1]; 28DAA, sub-column 1 of 3 (unlabelled)): 47.5% | Phytotoxicity (%) in corn crop ([1]; 28DAA, sub-column 3 of 3 (unlabelled)): 39.8% | Phytotoxicity (%) in corn crop ([1]; 28DAA): 56.3% | Phytotoxicity (%) in corn crop ([1]; 35DAA, sub-column 1 of 3 (unlabelled)): 44.9% | Phytotoxicity (%) in corn crop ([1]; 35DAA, sub-column 3 of 3 (unlabelled)): 39.9% | Phytotoxicity (%) in corn crop ([1]; 35DAA): 53.8% | Phytotoxicity (%) in corn crop ([1]; 42DAA, sub-column 1 of 3 (unlabelled)): 42.4% | Phytotoxicity (%) in corn crop ([1]; 42DAA, sub-column 3 of 3 (unlabelled)): 38.7% | Phytotoxicity (%) in corn crop ([1]; 42DAA): 48.7% | % phytotoxicity levels in corn crop ([1]; at 14 DAA, highest level stated in text): up to 50% | % phytotoxicity in corn crop ([1]; over a period of one month after application): significant damage | % phytotoxocity of corn crop variety P4285VYHR ([2]; 7DAA): 26 ab % | % phytotoxocity of corn crop variety SYN8A98 TLTG ([2]; 7DAA): 19 cd % | % phytotoxocity of corn crop variety XB 8010 ([2]; 7DAA): 28 a % | % phytotoxocity of corn crop variety P4285VYHR ([2]; 14 DAA): 34 b % | % phytotoxocity of corn crop variety SYN8A98 TLTG ([2]; 14 DAA): 47 ab % | % phytotoxocity of corn crop variety XB 8010 ([2]; 14 DAA): 52 ab % | % phytotoxocity of corn crop variety P4285VYHR ([2]; 21 DAA): 32 b % | % phytotoxocity of corn crop variety SYN8A98 TLTG ([2]; 21 DAA): 48 bc % | % phytotoxocity of corn crop variety XB 8010 ([2]; 21 DAA): 51 ab % | Height of the corn plants ([3]; 14 DAA, compared with untreated corn): reduction in height | Crop height (cm) at 14 DAA ([3]; corn variety SYN8A98 TLTG, flucarbazone 30 g ai/ha): 14 cm | Crop height (cm) at 14 DAA ([3]; corn variety XB 8010, flucarbazone 30 g ai/ha): 11 cm | % Efficacy for control of weeds ([4]; 7 DAA): 22.5% | % Efficacy for control of weeds ([4]; 14 DAA): 42.5% | % Efficacy for control of weeds ([4]; 21 DAA): 45% | % Efficacy for control of weeds ([4]; 28 DAA): 48.8% | % Efficacy for control of weeds ([4]; 35 DAA): 48.8% | % Efficacy for control of weeds ([4]; 42 DAA): 48.8% | % efficacy control of redroot pigweed ([4]; over a duration of one month, corn crop): reduced % efficacy

Reference: patent US20240324590A1, “COMBINATIONS OF TRIAZOLINONE HERBICIDES WITH SAFENERS” (UPL CORPORATION LIMITED, priority 2021, published 2024)
